Test results from US5244795A, “Processes for preparing cholesterol lowering compounds” (Merck & Co., Inc., priority 1992, dated 1993).

Columns and labels:
Assay in all cases: FISP disc diffusion assay
Type in all cases: cell-based
[1] = test system: Streptomyces sp.; parameters: key: F: clear zone, fuzzy edges; S: slightly hazy zone (some growth observed throughout zone); H: hazy zone (considerable growth observed throughout zone); V: very hazy zone (zone of inhibition is barely discernable); R: zone displays a ring of resistant growth; no qualifier: clear zone throughout, sharp edges; conditions: 250 μg/ml in CH2Cl2
Procedure: (§1) The FISP assay employs disc diffusion susceptibility testing methods to generate a spectrum of activity against a panel of representative yeasts, filamentous fungi and bacteria.
The bacteria employed in the assay are Streptomyces sp., Acholeplasma laidlawii and Bacillus subtilis.
(§2) For carrying out the assay, seeded assay plates are prepared in the following manner according to the type of assay strain.
(§3) Inocula for yeasts and bacterial strains are prepared from overnight broth cultures then diluted into potato dextrose agar to a final concentration of either 40 percent or 70 percent transmission at 660 nm.
(§4) The seeded agar media thus prepared are dispensed into petri dishes for assays (11 ml per dish).
The samples to be tested for production of antifungal agent are applied to 6.2 mm filter paper discs (25 μl/disc) and air dried at 24° C. When the sample to be tested is crude broth, it may be centrifuged prior to application. The discs bearing the material to be tested are then applied employing sterile conditions to the seeded assay plates. The assay plates are then incubated at either 28° C. or 37° C. for 24 hours. […]
(§5) Following incubation, the inhibition zones are measured and recorded. […]
(§6) FISP data is reported as the diameter (in mm.) of the zone of inhibition of growth in agar diffusion assays. The zone is determined by measuring growth that differs from the background lawn. […]

[2] = test system: Torulopsis glabrata; conditions: Nakaseomyces glabratus; 250 μg/ml in CH2Cl2; read-out: diameter of the zone of inhibition of growth
Description: as §1
(§7) The yeasts employed in the assay are Saccharomyces cerevisiae, Candida albicans, Candida tropicalis, Candida rugosa, Brettanomyces bruxellensis, Torulospora hansenii, Candida guilliermondi, Candida pseudotropicalis, Torulopsis glabrata, Cryptococcus albidus, Cryptococcus laurentii and Kluyveromyces fragilis.
as §2, §3
(§8) Assay plates for the yeasts and filamentous fungi are prepared by diluting the inoculum into appropriate molten agar medium, cooled to 45° C. to obtain a final concentration of 4 percent.
(§9) The seeded agar media thus prepared are dispensed into petri dishes for assays (11 ml per dish). […]
as §5, §6

[3] = test system: Candida guilliermondii; conditions: Meyerozyma guilliermondii; 250 μg/ml in CH2Cl2; read-out: diameter of the zone of inhibition of growth
Description: as §1, §7, §2, §3, §8, §9, §5, §6

[4] = test system: Aspergillus flavus; parameters: key: F: clear zone, fuzzy edges; S: slightly hazy zone (some growth observed throughout zone); H: hazy zone (considerable growth observed throughout zone); V: very hazy zone (zone of inhibition is barely discernable); R: zone displays a ring of resistant growth; no qualifier: clear zone throughout, sharp edges; conditions: 250 μg/ml in CH2Cl2
Description: as §1
(§10) The filamentous fungi used in the assay were Penicillium sp. Aspergillus niger, Trichoderma sp., Phoma sp., Trichoderma lignorum, Fusarium oxysporum, Ustilago maydis, Ceratocystis ulmi, Alternaria soloni, Verticillium serrae, Botrytis allii, Scopulariopsis communis, Cephalosporium sp., Cercospora beticola, Rhizomucor miehei, Aspergillus flavus and Aspergillus fumigatus.
as §2
(§11) Inocula for filamentous fungi are prepared by scraping the surface of stock plates maintained on potato dextrose agar with a moistened sterile dacron swab. The spores and mycelia are then suspended in 10 milliliters of sterile potato dextrose broth and adjusted to 65 percent transmission at 660 nm.
as §8, §4
(§12) The samples to be tested for production of antifungal agent are applied to 6.2 mm filter paper discs (25 μl/disc) and air dried at 24° C. When the sample to be tested is crude broth, it may be centrifuged prior to application. The discs bearing the material to be tested are then applied employing sterile conditions to the seeded assay plates. The assay plates are then incubated at either 28° C. or 37° C. for 24 hours. In one of the assays for Bacillus subtilis, the sample is applied to a disc previously impregnated with 4M potassium chloride at 25 μl/disc and then air dried.
(§13) Following incubation, the inhibition zones are measured and recorded. The measurements are made from the extreme edge where growth differs from the background zone. The zones are noted as to appearance as fuzzy edge and clear center, hazy throughout, slightly hazy, very hazy or ringed.
(§14) FISP data is reported as the diameter (in mm.) of the zone of inhibition of growth in agar diffusion assays. The zone is determined by measuring growth that differs from the background lawn. A qualifier is also added to describe the zone quality as listed below: no qualifier: clear zone throughout, sharp edges

[5] = test system: Cephalosporium sp.; parameters: key: F: clear zone, fuzzy edges; S: slightly hazy zone (some growth observed throughout zone); H: hazy zone (considerable growth observed throughout zone); V: very hazy zone (zone of inhibition is barely discernable); R: zone displays a ring of resistant growth; no qualifier: clear zone throughout, sharp edges; conditions: 250 μg/ml in CH2Cl2
Description: as §1, §10, §2, §11, §8, §4, §12, §13, §14

[6] = test system: Alternaria solani; parameters: key: F: clear zone, fuzzy edges; S: slightly hazy zone (some growth observed throughout zone); H: hazy zone (considerable growth observed throughout zone); V: very hazy zone (zone of inhibition is barely discernable); R: zone displays a ring of resistant growth; no qualifier: clear zone throughout, sharp edges; conditions: 250 μg/ml in CH2Cl2
Description: as §1, §10, §2, §11, §8, §4, §12, §13, §14

[7] = test system: Fusarium oxysporum; parameters: key: F: clear zone, fuzzy edges; S: slightly hazy zone (some growth observed throughout zone); H: hazy zone (considerable growth observed throughout zone); V: very hazy zone (zone of inhibition is barely discernable); R: zone displays a ring of resistant growth; no qualifier: clear zone throughout, sharp edges; conditions: 250 μg/ml in CH2Cl2
Description: as §1, §10, §2, §11, §8, §4, §12, §13, §14

[8] = test system: Cercospora beticola; parameters: key: F: clear zone, fuzzy edges; S: slightly hazy zone (some growth observed throughout zone); H: hazy zone (considerable growth observed throughout zone); V: very hazy zone (zone of inhibition is barely discernable); R: zone displays a ring of resistant growth; no qualifier: clear zone throughout, sharp edges; conditions: 250 μg/ml in CH2Cl2
Description: as §1, §10, §2, §11, §8, §4, §12, §13, §14

[9] = test system: Scopulariopsis communis; parameters: key: F: clear zone, fuzzy edges; S: slightly hazy zone (some growth observed throughout zone); H: hazy zone (considerable growth observed throughout zone); V: very hazy zone (zone of inhibition is barely discernable); R: zone displays a ring of resistant growth; no qualifier: clear zone throughout, sharp edges; conditions: 250 μg/ml in CH2Cl2
Description: as §1, §10, §2, §11, §8, §4, §12, §13, §14

[10] = test system: Aspergillus fumigatus; parameters: key: F: clear zone, fuzzy edges; S: slightly hazy zone (some growth observed throughout zone); H: hazy zone (considerable growth observed throughout zone); V: very hazy zone (zone of inhibition is barely discernable); R: zone displays a ring of resistant growth; no qualifier: clear zone throughout, sharp edges; conditions: 250 μg/ml in CH2Cl2
Description: as §1, §10, §2, §11, §8, §4, §12, §13, §14

[11] = test system: Botrytis allii; parameters: key: F: clear zone, fuzzy edges; S: slightly hazy zone (some growth observed throughout zone); H: hazy zone (considerable growth observed throughout zone); V: very hazy zone (zone of inhibition is barely discernable); R: zone displays a ring of resistant growth; no qualifier: clear zone throughout, sharp edges; conditions: 250 μg/ml in CH2Cl2
Description: as §1, §10, §2, §11, §8, §4, §12, §13, §14

[12] = test system: Ustilago maydis; parameters: key: F: clear zone, fuzzy edges; S: slightly hazy zone (some growth observed throughout zone); H: hazy zone (considerable growth observed throughout zone); V: very hazy zone (zone of inhibition is barely discernable); R: zone displays a ring of resistant growth; no qualifier: clear zone throughout, sharp edges; conditions: 250 μg/ml in CH2Cl2
Description: as §1, §10, §2, §11, §8, §4, §12, §13, §14

[13] = test system: Rhizomucor miehei; parameters: key: F: clear zone, fuzzy edges; S: slightly hazy zone (some growth observed throughout zone); H: hazy zone (considerable growth observed throughout zone); V: very hazy zone (zone of inhibition is barely discernable); R: zone displays a ring of resistant growth; no qualifier: clear zone throughout, sharp edges; conditions: 250 μg/ml in CH2Cl2
Description: as §1, §10, §2, §11, §8, §4, §12, §13, §14

Compound: CC(/C=C/C=C(\C)C(O)C(C)C(=O)O[C@H]1C[C@H](C)C=C2C=C[C@@]3(C)O[C@@H](O)CC(=O)[C@]3(C)[C@H]21)=C\C=C\C(=O)O (stereo partly shown) [Compound A]
- zone quality qualifier [1]: V
- zone of inhibition at 250 µg/mL [2]: 0 mm
- zone of inhibition at 250 µg/mL [3]: 0 mm
- zone quality qualifier [4]: H
- zone quality qualifier [5]: F
- zone quality qualifier [6]: F
- zone quality qualifier [7]: S
- zone quality qualifier [8]: S
- zone quality qualifier [9]: F
- zone quality qualifier [10]: S
- zone quality qualifier [11]: S
- zone quality qualifier [12]: V
- zone quality qualifier [13]: H
